Where two headings read alike, the source gives them in different places. Peptide text beside a SMILES is read from it.
Tests used:
[1] = test system: A. baumannii 5075; settings: Week 1 (12/6/2023)
[2] = set-up: method as in Biomatik (vendor); settings: 1.0 mg peptide in 1.0 ml solvent; peptides synthesized by Biomatik; ref Biomatik (vendor); cited from earlier work
[3] = test system: K. pneumoniae ATCC 700603; test: microbe, parasite or virus in culture; settings: K. pneumoniae 700603; Week 1 (12/6/2023)
Description: (§1) Antimicrobial susceptibility testing of the 20 synthesized peptides against 17 bacterial strains of clinical relevance in the ESKAPEE panel was conducted using minimum inhibitory concentration (MIC) assays following the broth microdilution method outlined by Parker et al.[91]. The ESKAPEE panel is comprised of fourteen American Type Culture Collection (ATCC) strains and three Multidrug Resistant Organism Repository and Surveillance Network (MRSN) bacterial strains. These strains represent at least one drug-susceptible strain and one drug-resistant strain for each bacterium to assess drug efficacy across various resistance mechanisms. This panel is comprised of the following bacterial species and strains: E. faecium (ATCC 19434, ATCC 49224), S. aureus (ATCC 25923, ATCC 43300), K. pneumoniae (ATCC 700603, ATCC 13883, MRSN 1320), A. baumannii (ATCC 17978, ATCC 19606, MRSN 959), P. aeruginosa (ATCC 15692, ATCC 27853, MRSN 5519), E. cloacae (ATCC 13047, ATCC 35549), and E. coli (ATCC 35218, ATCC 43888). Bacteria were grown in cation-adjusted Mueller-Hinton broth (CAMHB) to achieve a final inoculum of 1 × 10⁵ CFU/mL. CAMHB is selected for its batch-to-batch reproducibility, low levels of antimicrobial inhibitors, and ability to support the growth of most bacterial pathogens.
(§2) Briefly, lyophilized peptides were dissolved in 0.2% TFA + 0.4% BSA in water to 2.56 mg/mL, ultrasonicated for 20 min, diluted 10-fold into CAMHB, and then serially diluted 2-fold in 0.02% TFA + 0.04% BSA in CAMHB and assayed at a concentration of 0.25 to 128 μg/mL. Assays were set up using the Tecan Freedom EVO liquid handling robot and software (Tecan, Switzerland) with 50 μL of bacterial inoculum and 50 μL of peptide transferred into round-bottom 96-well microtiter plates. Each plate assay was performed in duplicate and incubated at 37 °C for 20 h without agitation. Bacterial growth was assessed using the BIOMIC V3 Image Analysis system (Giles Scientific, USA) and the MIC values were determined visually according to the Clinical and Laboratory Standards Institute (CLSI) guidelines.

[4] = test system: A. baumannii ATCC 19606; test: microbe, parasite or virus in culture
Description: as §1, §2

[5] = test system: S. aureus ATCC 25923; test: microbe, parasite or virus in culture
Description: as §1, §2

[6] = test system: E. coli ATCC 35218; test: microbe, parasite or virus in culture; settings: E. coli 35218; Week 1 (12/6/2023)
Description: as §1, §2

[7] = test system: P. aeruginosa ATCC 27853; test: microbe, parasite or virus in culture
Description: as §1, §2

[8] = test system: E. cloacae ATCC 13047; test: microbe, parasite or virus in culture
Description: as §1, §2

[9] = test system: S. aureus ATCC 43300; test: microbe, parasite or virus in culture; settings: S. aureus 43300; Week 1 (12/6/2023)
Description: as §1, §2

[10] = test system: K. pneumoniae ATCC 13883; test: microbe, parasite or virus in culture
Description: as §1, §2

[11] = test system: A. baumannii ATCC 17978; test: microbe, parasite or virus in culture
Description: as §1, §2

[12] = test system: E. cloacae ATCC 35549; test: microbe, parasite or virus in culture
Description: as §1, §2

[13] = test system: P. aeruginosa MRSN 5519; test: microbe, parasite or virus in culture
Description: as §1, §2

[14] = test system: E. coli ATCC 43888; test: microbe, parasite or virus in culture
Description: as §1, §2

[15] = test system: E. faecium ATCC 19434; test: microbe, parasite or virus in culture
Description: as §1, §2

[16] = test system: E. faecium ATCC 49224; test: microbe, parasite or virus in culture
Description: as §1, §2

[17] = test system: K. pneumoniae 4640
[18] = test system: P. aeruginosa PA01 (Si); test: microbe, parasite or virus in culture; type: cell-based
From the text: Supplement 41522_2025_837_MOESM13_ESM.xlsx, sheet "Table_S13_ESKAPEE-MIC" | column: Bacterial MIC (µg/mL)

SMILES	Bacterial MIC [1]	Suggest solvent (solubility) [2]	Bacterial MIC [3]	Bacterial MIC [6]	Bacterial MIC [9]	Bacterial MIC ([4]; ATCC 19606, 20 h)	Bacterial MIC ([5]; ATCC 25923, 20 h)	Bacterial MIC ([7]; ATCC 27853, 20 h)	Bacterial MIC ([8]; ATCC 13047, 20 h)	Bacterial MIC ([10]; ATCC 13883, 20 h)	Bacterial MIC ([11]; ATCC 17978, 20 h)	Bacterial MIC ([12]; ATCC 35549, 20 h)	Bacterial MIC ([13]; MRSN 5519, 20 h)	Bacterial MIC ([14]; ATCC 43888, 20 h)	Bacterial MIC ([15]; ATCC 19434, 20 h)	Bacterial MIC ([16]; ATCC 49224, 20 h)	Bacterial MIC ([17]; 4640, 20 h)	Bacterial MIC ([18]; Si)	also measured
N=C(N)NCCC[C@H](N)C(=O)N1CCC[C@H]1C(=O)N1CCC[C@H]1C(=O)NCC(=O)N[C@@H](Cc1ccccc1)C(=O)N[C@@H](CO)C(=O)N1CCC[C@H]1C(=O)N[C@@H](Cc1ccccc1)C(=O)O [PrMb-Eb14]	>128.000 mg/L	1.0mg peptide soluble in 1.0ml H2O	>128.000 mg/L	>128.000 mg/L	>128.000 mg/L	–	–	–	–	–	–	–	–	–	–	–	–	–	Bacterial MIC ([4]; A. baumannii 19606, Week 1 (12/6/2023)): >128.000 mg/L; Bacterial MIC ([5]; S. aureus 25923, Week 1 (12/6/2023)): >128.000 mg/L; Bacterial MIC ([7]; P. aeruginosa 27853, Week 1 (12/6/2023)): >128.000 mg/L; Bacterial MIC ([8]; E. cloacae 13047, Week 1 (12/6/2023)): >128.000 mg/L; Bacterial MIC ([10]; K. pneumoniae 13883, Week 1 (12/6/2023)): >128.000 mg/L; Bacterial MIC ([11]; A. baumannii 17978, Week 1 (12/6/2023)): >128.000 mg/L; Bacterial MIC ([12]; E. cloacae 35549, Week 1 (12/6/2023)): >128.000 mg/L; Bacterial MIC ([13]; P. aeruginosa 5519, Week 1 (12/6/2023)): >128.000 mg/L; Bacterial MIC ([14]; E. coli 43888, Week 1 (12/6/2023)): >128.000 mg/L; Bacterial MIC ([15]; E. faecium 19434, Week 1 (12/6/2023)): >128.000 mg/L; Bacterial MIC ([16]; E. faecium 49224, Week 1 (12/6/2023)): >128.000 mg/L; Bacterial MIC ([17]; K. pneumoniae 4640, Week 1 (12/6/2023)): >128.000 mg/L; Bacterial MIC ([18]; P. aeruginosa PA01 (Si), not typical ESKAPEE strain, Week 1 (12/6/2023)): >128.000 mg/L
CC[C@H](C)[C@H](N)C(=O)N[C@@H](CC(C)C)C(=O)N[C@@H](CCCNC(=N)N)C(=O)N[C@@H](CCCCN)C(=O)N1CCC[C@H]1C(=O)N[C@@H](CCC(=O)O)C(=O)N[C@@H](CCCCN)C(=O)N[C@@H](CC(=O)O)C(=O)N[C@@H](CC(=O)O)C(=O)N[C@@H](CC(=O)O)C(=O)N[C@H](C(=O)N[C@@H](CO)C(=O)N[C@@H](CO)C(=O)N[C@@H](CCCNC(=N)N)C(=O)N[C@H](C(=O)NCC(=O)N[C@@H](Cc1ccc(O)cc1)C(=O)N[C@@H](CC(C)C)C(=O)N[C@@H](Cc1ccccc1)C(=O)N[C@@H](CS)C(=O)N[C@@H](CS)C(=O)N[C@@H](CCCCN)C(=O)N[C@@H](CCSC)C(=O)N[C@@H](CCCNC(=N)N)C(=O)N[C@@H](CC(C)C)C(=O)N[C@@H](CS)C(=O)N[C@@H](C)C(=O)N[C@@H](CS)C(=O)N[C@@H](CCCNC(=N)N)C(=O)N[C@@H](CCCNC(=N)N)C(=O)N[C@@H](CO)C(=O)O)[C@@H](C)CC)[C@@H](C)O [Tr-Eb4] (H-ILRKPEKDDDTSSRIGYLFCCKMRLCACRRS-OH; N-terminus and C-terminus assumed)	–	1.0mg peptide soluble in 1.0ml DMSO	–	–	–	>128.000 mg/L	>128.000 mg/L	>128.000 mg/L	>128.000 mg/L	>128.000 mg/L	>128.000 mg/L	>128.000 mg/L	>128.000 mg/L	>128.000 mg/L	>128.000 mg/L	>128.000 mg/L	>128.000 mg/L	>128.000 mg/L	–
CC[C@H](C)[C@H](NC(=O)[C@H](CCSC)NC(=O)[C@H](CS)NC(=O)[C@H](CC(C)C)NC(=O)[C@@H](NC(=O)[C@H](CS)NC(=O)[C@H](CS)NC(=O)[C@H](CCSC)NC(=O)[C@H](CS)NC(=O)[C@H](CO)NC(=O)[C@H](CC(C)C)NC(=O)[C@H](CCC(N)=O)NC(=O)[C@H](CCCCN)NC(=O)[C@H](Cc1c[nH]cn1)NC(=O)[C@H](CCC(N)=O)NC(=O)[C@H](Cc1c[nH]c2ccccc12)NC(=O)[C@@H](NC(=O)[C@@H](NC(=O)[C@H](CCC(=O)O)NC(=O)[C@@H](NC(=O)[C@H](CC(=O)O)NC(=O)[C@@H](NC(=O)[C@H](CC(C)C)NC(=O)[C@H](CC(=O)O)NC(=O)[C@@H](N)CCCCN)[C@@H](C)CC)[C@@H](C)O)[C@@H](C)O)[C@@H](C)O)C(C)C)C(=O)N[C@@H](C)C(=O)N[C@@H](CCCCN)C(=O)N[C@@H](CCCNC(=N)N)C(=O)N[C@@H](CS)C(=O)N[C@@H](CS)C(=O)O [Tr-Pc15] (H-KDLIDTETTWQHKQLSCMCCVLCMIAKRCC-OH; N-terminus and C-terminus assumed)	–	1.0mg peptide soluble in 1.0ml DMSO	–	–	–	>128.000 mg/L	>128.000 mg/L	>128.000 mg/L	>128.000 mg/L	>128.000 mg/L	>128.000 mg/L	>128.000 mg/L	>128.000 mg/L	>128.000 mg/L	>128.000 mg/L	>128.000 mg/L	>128.000 mg/L	>128.000 mg/L	–
CC[C@H](C)[C@H](NC(=O)[C@H](CO)NC(=O)[C@H](CO)NC(=O)[C@H](Cc1ccccc1)NC(=O)[C@H](CS)NC(=O)CNC(=O)[C@@H]1CCCN1C(=O)[C@H](CCCNC(=N)N)NC(=O)[C@H](CCCNC(=N)N)NC(=O)CNC(=O)[C@H](CS)NC(=O)[C@H](CCCNC(=N)N)NC(=O)[C@H](CCCNC(=N)N)NC(=O)[C@@H]1CCCN1C(=O)[C@H](C)NC(=O)CNC(=O)[C@H](CCCNC(=N)N)NC(=O)[C@@H](NC(=O)[C@H](CC(C)C)NC(=O)[C@H](CCCNC(=N)N)NC(=O)[C@@H](NC(=O)CNC(=O)[C@H](CCCNC(=N)N)NC(=O)[C@H](CCCCN)NC(=O)[C@@H](NC(=O)[C@H](Cc1c[nH]cn1)NC(=O)[C@@H](NC(=O)[C@@H](N)CCC(=O)O)[C@@H](C)CC)[C@@H](C)O)[C@@H](C)O)C(C)C)C(=O)NCC(=O)N[C@@H](CCCCN)C(=O)N[C@H](C(=O)N[C@@H](CCC(=O)O)C(=O)O)C(C)C [TrPr-Eb2] (H-EIHTKRGTRLVRGAPRRCGRRPGCFSSIGKVE-OH; N-terminus and C-terminus assumed)	>128.000 mg/L	1.0mg peptide soluble in 1.0ml H2O	>128.000 mg/L	>128.000 mg/L	>128.000 mg/L	>128.000 mg/L	>128.000 mg/L	>128.000 mg/L	>128.000 mg/L	>128.000 mg/L	>128.000 mg/L	>128.000 mg/L	>128.000 mg/L	>128.000 mg/L	>128.000 mg/L	>128.000 mg/L	>128.000 mg/L	>128.000 mg/L	–

Source: publication PMC12635268, “Novel antimicrobial peptides and peptide-microbiome crosstalk in Appalachian salamander skin” (NPJ Biofilms and Microbiomes, 2025)
